Experimental data from ChEMBL document CHEMBL5537171, “Design, Synthesis, and Biological Evaluation of Potent and Selective PROTAC Degraders of Oncogenic KRASG12D” (J Med Chem, 2024).
Activity calls are given as the source filed them. The calls are words filed in the database; no cut-off is given here.

Legend:
[1] = system: von Hippel-Lindau disease tumor suppressor/GTPase KRas (Homo sapiens), P01116+P40337 [G12D]; assay: PROTAC activity at VHL/KRAS G12D mutant in human ASPC1 cells assessed as induction of protein degradation incubated for 24 hrs by Western blot analysis relative to control; type: cell-based
[2] = target: von Hippel-Lindau disease tumor suppressor/GTPase KRas (Homo sapiens, UniProt P01116+P40337, G12D); assay: PROTAC activity at VHL/KRAS G12D mutant in human ASPC1 cells assessed as induction of protein degradation incubated for 24 hrs by Western blot analysis; type: cell-based
[3] = Competitive binding affinity to His-tagged VHL/Elongin C/Elongin B (unknown origin) by FP assay; parameters: species or system Homo sapiens
[4] = Cooperativity factor alpha, ratio of IC50 for His-tagged VHL/Elongin C/Elongin B (unknown origin) to IC50 for His-tagged VHL/Elongin C/Elongin B/KRAS (unknown origin)
[5] = Competitive binding affinity to His-tagged VHL/Elongin C/Elongin B/KRAS G12D mutant (unknown origin) by FP assay; parameters: species or system Homo sapiens
[6] = Drug uptake in human ASPC1 cells at 10 uM incubated for 1 hr by MS analysis; type: ADME, cell-based; conditions: aspc1, 1 h
[7] = system: NCI-H1975; assay: Antiproliferative activity against human NCI-H1975 cells harboring wild-type KRAS assessed as inhibition of cell viability incubated for 5 days by Cell Titer Glo assay; type: functional, cell-based; conditions: NCI-H1975, 120 h
[8] = system: Panc 04.03; assay: Antiproliferative activity against human Panc 04.03 cells harboring KRAS G12D mutant assessed as inhibition of cell viability incubated for 5 days by Cell Titer Glo assay; type: functional, cell-based; conditions: Panc 04.03, 120 h
[9] = system: von Hippel-Lindau disease tumor suppressor/GTPase KRas (Homo sapiens), P01116+P40337 [G12D]; assay: PROTAC activity at VHL/KRAS G12D mutant in human ASPC1 cells assessed as induction of protein degradation at 1 to 10 uM incubated for 7 hrs by Western blot analysis; type: cell-based; conditions: dose 1-10 µM
[10] = system: ASPC1; assay: Antiproliferative activity against human ASPC1 cells harboring KRAS G12D mutant assessed as inhibition of cell viability incubated for 5 days by Cell Titer Glo assay; type: functional, cell-based; conditions: ASPC1, 120 h
[11] = system: AGS; assay: Antiproliferative activity against human AGS cells harboring KRAS G12D mutant assessed as inhibition of cell viability incubated for 5 days by Cell Titer Glo assay; type: functional, cell-based; conditions: 120 h
[12] = system: HPAF-II; assay: Antiproliferative activity against human HPAF-II cells harboring KRAS G12D mutant assessed as inhibition of cell viability incubated for 5 days by Cell Titer Glo assay; type: functional, cell-based; conditions: 120 h
[13] = system: NCI-H358; assay: Antiproliferative activity against human NCI-H358 cells harboring KRAS G12C mutant assessed as inhibition of cell viability incubated for 5 days by Cell Titer Glo assay; type: functional, cell-based; conditions: NCI-H358, 120 h
[14] = organism: Homo sapiens; assay: Binding affinity to His-tagged VHL/Elongin C/Elongin B/GST-tagged KRAS G12D mutant (unknown origin) incubated for 1 hr by HTRF assay
[15] = system: SNU1; assay: Antiproliferative activity against human SNU1 cells harboring KRAS G12D mutant assessed as inhibition of cell viability incubated for 5 days by Cell Titer Glo assay; type: functional, cell-based; conditions: SNU1, 120 h
[16] = Selectivity index, ratio of IC50 for human ASPC1 cells assessed as inhibition of cell viability incubated for 6 hrs followed by compound washout measured after 114 hrs by Cell Titer Glo assay to IC50 for human ASPC1 cells assessed as inhibition of cell viability incubated for 120 hrs of continuous treatment by Cell Titer Glo assay; type: functional
[17] = system: ASPC1; assay: Antiproliferative activity against human ASPC1 cells assessed as inhibition of cell viability incubated for 6 hrs followed by compound washout measured after 114 hrs by Cell Titer Glo assay; type: functional, cell-based
[18] = system: ASPC1; assay: Antiproliferative activity against human ASPC1 cells assessed as inhibition of cell viability incubated for 120 hrs of continuous treatment by Cell Titer Glo assay; type: functional, cell-based; conditions: ASPC1, 120 h
[19] = system: von Hippel-Lindau disease tumor suppressor/GTPase KRas (Homo sapiens), P01116+P40337 [G12D]; assay: PROTAC activity at VHL/KRAS G12D mutant in human ASPC1 cells assessed as decrease in pERK level at 1 uM incubated for 6 hrs followed by compound washout measured for <4 hrs by Western blot analysis; type: cell-based
[20] = target: GTPase KRas (Homo sapiens, UniProt P01116, G12D); assay: Inhibition of KRAS G12D mutant (unknown origin) preincubated for 15 mins followed by SOS1/EDA-GTP-DY-647P1 addition measured after 30 mins by HTRF assay
GTPase KRas, sequence (P01116 whole entry G12D): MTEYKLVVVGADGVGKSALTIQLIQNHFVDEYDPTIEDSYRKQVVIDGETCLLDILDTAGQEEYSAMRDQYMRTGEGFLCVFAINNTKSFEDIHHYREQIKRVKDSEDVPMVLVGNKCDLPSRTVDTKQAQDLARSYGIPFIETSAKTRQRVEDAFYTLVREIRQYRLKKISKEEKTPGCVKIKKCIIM

von Hippel-Lindau disease tumor suppressor/GTPase KRas, sequence (P01116 whole entry G12D, stated change not applied): as the sequence (P01116 whole entry G12D) above
von Hippel-Lindau disease tumor suppressor/GTPase KRas, sequence (P40337 whole entry, stated change not applied): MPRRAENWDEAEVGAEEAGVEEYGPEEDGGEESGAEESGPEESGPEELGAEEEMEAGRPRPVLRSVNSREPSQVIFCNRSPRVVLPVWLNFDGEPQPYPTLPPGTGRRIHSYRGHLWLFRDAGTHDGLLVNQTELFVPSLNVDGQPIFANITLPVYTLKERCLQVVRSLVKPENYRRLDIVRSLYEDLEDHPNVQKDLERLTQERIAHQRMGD
von Hippel-Lindau disease tumor suppressor/GTPase KRas (Homo sapiens), P01116+P40337 [G12D], sequence (P01116 whole entry G12D): as the sequence (P01116 whole entry G12D) above
von Hippel-Lindau disease tumor suppressor/GTPase KRas (Homo sapiens), P01116+P40337 [G12D], sequence (P40337 whole entry partner): as the sequence (P40337 whole entry, stated change not applied) above

## CCc1cccc2cc(O)cc(-c3ncc4c(N5C[C@H]6CC[C@@H](C5)N6)nc(OC[C@@H]5CCCN5CCCCCCCC(=O)N[C@H](C(=O)N5C[C@H](O)C[C@H]5C(=O)N[C@@H](C)c5ccc(-c6scnc6C)cc5)C(C)(C)C)nc4c3F)c12
[1]
  Emax: 82.4%
[2]; read-out: DC50
  DC50: 2260 nM

## CCc1cccc2cc(O)cc(-c3ncc4c(N5C[C@H]6CC[C@@H](C5)N6)nc(OC[C@@H]5CCCN5CCCCOCC(=O)N[C@H](C(=O)N5C[C@H](O)C[C@H]5C(=O)N[C@@H](C)c5ccc(-c6scnc6C)cc5)C(C)(C)C)nc4c3F)c12
[3]
  IC50: 407 nM
[4]
  Ratio IC50: 21.5
[1]
  Emax: 99.4%
[5]
  IC50: 18.9 nM
[2]; read-out: DC50
  DC50: 164 nM
[6]
  Drug uptake: Active

## CCc1cccc2cc(O)cc(-c3ncc4c(N5C[C@H]6CC[C@@H](C5)N6)nc(OC[C@@H]5CCCN5C5CCC6(CC5)CCN(CC(=O)N[C@H](C(=O)N5C[C@H](O)C[C@H]5C(=O)N[C@@H](C)c5ccc(-c7scnc7C)cc5)C(C)(C)C)CC6)nc4c3F)c12
[1]
  Emax: 53.9%

## CCc1cccc2cc(O)cc(-c3ncc4c(N5C[C@H]6CC[C@@H](C5)N6)nc(OC[C@@H]5CCCN5CCCCOCCC(=O)N[C@H](C(=O)N5C[C@H](O)C[C@H]5C(=O)N[C@@H](C)c5ccc(-c6scnc6C)cc5)C(C)(C)C)nc4c3F)c12
[1]
  Emax: 90.2%
[2]; read-out: DC50
  DC50: 1310 nM

## CCc1c(F)ccc2cc(O)cc(-c3ncc4c(N5C[C@H]6CC[C@@H](C5)N6)nc(OC[C@@H]5CCCN5CCCCOCC(=O)N[C@H](C(=O)N5C[C@@H](O)C[C@H]5C(=O)N[C@@H](C)c5ccc(-c6scnc6C)cc5)C(C)(C)C)nc4c3F)c12
[7]
  IC50: > 10000 nM
[8]
  IC50: 3360 nM
[9]
  Activity: inactive
[10]
  IC50: > 2000 nM
[11]
  IC50: 955 nM
[12]
  IC50: > 4000 nM
[13]
  IC50: > 10000 nM
[14]
  Activity: inactive
[15]
  IC50: 927 nM

## CCc1cccc2cc(O)cc(-c3ncc4c(N5C[C@H]6CC[C@@H](C5)N6)nc(OC[C@@H]5CCCN5CC5CCN(CCC(=O)N[C@H](C(=O)N6C[C@H](O)C[C@H]6C(=O)N[C@@H](C)c6ccc(-c7scnc7C)cc6)C(C)(C)C)CC5)nc4c3F)c12
[3]
  IC50: 2160 nM
[4]
  Ratio IC50: 26.9
[1]
  Emax: 29.8%
[5]
  IC50: 80.4 nM

## CCc1cccc2cc(O)cc(-c3ncc4c(N5C[C@H]6CC[C@@H](C5)N6)nc(OC[C@@H]5CCCN5CCCCCCC(=O)N[C@H](C(=O)N5C[C@H](O)C[C@H]5C(=O)N[C@@H](C)c5ccc(-c6scnc6C)cc5)C(C)(C)C)nc4c3F)c12
[1]
  Emax: 98.9%
[2]; read-out: DC50
  DC50: 572 nM

## CCc1cccc2cc(O)cc(-c3ncc4c(N5C[C@H]6CC[C@@H](C5)N6)nc(OC[C@@H]5CCCN5CCOCCC(=O)N[C@H](C(=O)N5C[C@H](O)C[C@H]5C(=O)N[C@@H](C)c5ccc(-c6scnc6C)cc5)C(C)(C)C)nc4c3F)c12
[1]
  Emax: 89.5%
[2]; read-out: DC50
  DC50: 1820 nM

## CCc1cccc2cc(O)cc(-c3ncc4c(N5C[C@H]6CC[C@@H](C5)N6)nc(OC[C@@H]5CCCN5C[C@H]5CC[C@H](C(=O)N[C@H](C(=O)N6C[C@H](O)C[C@H]6C(=O)N[C@@H](C)c6ccc(-c7scnc7C)cc6)C(C)(C)C)CC5)nc4c3F)c12
[1]
  Emax: inactive
[2]
  DC50: Not Active

## CCc1c(F)ccc2cc(O)cc(-c3ncc4c(N5C[C@H]6CC[C@@H](C5)N6)nc(OC[C@@H]5C[C@@H](F)CN5CCCCOCC(=O)N[C@H](C(=O)N5C[C@H](O)C[C@H]5C(=O)N[C@@H](C)c5ccc(-c6scnc6C)cc5)C(C)(C)C)nc4c3F)c12
[1]
  Emax: 96.2%
[2]; read-out: DC50
  DC50: 87.2 nM

## CCc1c(F)ccc2cc(O)cc(-c3ncc4c(N5C[C@H]6CC[C@@H](C5)N6)nc(OC[C@@H]5CCCN5C)nc4c3F)c12
[7]
  IC50: > 10000 nM
[8]
  IC50: 112 nM
[10]
  IC50: 154 nM
[11]
  IC50: 20.1 nM
[12]
  IC50: 165 nM
[13]
  IC50: > 10000 nM
[16]
  Ratio IC50: 21.14
[17]
  IC50: 2940 nM
[18]
  IC50: 139 nM
[19]
  Activity: Active
[15]
  IC50: 29.8 nM

## CCc1cccc2cc(O)cc(-c3ncc4c(N5C[C@H]6CC[C@@H](C5)N6)nc(OC[C@@H]5CCCN5CCCOCCC(=O)N[C@H](C(=O)N5C[C@H](O)C[C@H]5C(=O)N[C@@H](C)c5ccc(-c6scnc6C)cc5)C(C)(C)C)nc4c3F)c12
[3]
  IC50: 908 nM
[4]
  Ratio IC50: 35.7
[1]
  Emax: 98.1%
[5]
  IC50: 25.4 nM
[2]; read-out: DC50
  DC50: 132 nM

## CCc1cccc2cc(O)cc(-c3ncc4c(N5C[C@H]6CC[C@@H](C5)N6)nc(OC[C@@H]5CCCN5CCCCCC(=O)N[C@H](C(=O)N5C[C@H](O)C[C@H]5C(=O)N[C@@H](C)c5ccc(-c6scnc6C)cc5)C(C)(C)C)nc4c3F)c12
[1]
  Emax: 89.7%
[2]; read-out: DC50
  DC50: 1200 nM

## CC(=O)N[C@H](C(=O)N1C[C@H](O)C[C@H]1C(=O)N[C@@H](C)c1ccc(-c2scnc2C)cc1)C(C)(C)C
[3]
  IC50: 343 nM
[4]
  Ratio IC50: 0.9
[5]
  IC50: 380 nM

## CCc1cccc2cc(O)cc(-c3ncc4c(N5C[C@H]6CC[C@@H](C5)N6)nc(OC[C@@H]5CCCN5CCCCC(=O)N[C@H](C(=O)N5C[C@H](O)C[C@H]5C(=O)N[C@@H](C)c5ccc(-c6scnc6C)cc5)C(C)(C)C)nc4c3F)c12
[1]
  Emax: 96.7%
[2]; read-out: DC50
  DC50: 1010 nM

## CCc1cccc2cc(O)cc(-c3ncc4c(N5C[C@H]6CC[C@@H](C5)N6)nc(OC[C@@H]5CCCN5C5CC6(CCN(CC(=O)N[C@H](C(=O)N7C[C@H](O)C[C@H]7C(=O)N[C@@H](C)c7ccc(-c8scnc8C)cc7)C(C)(C)C)CC6)C5)nc4c3F)c12
[1]
  Emax: 85.1%
[2]; read-out: DC50
  DC50: 134 nM

## CCc1cccc2cc(O)cc(-c3ncc4c(N5C[C@H]6CC[C@@H](C5)N6)nc(OC[C@@H]5CCCN5CCCCCCCCC(=O)N[C@H](C(=O)N5C[C@H](O)C[C@H]5C(=O)N[C@@H](C)c5ccc(-c6scnc6C)cc5)C(C)(C)C)nc4c3F)c12
[1]
  Emax: 89.3%
[2]; read-out: DC50
  DC50: 165 nM

## C#Cc1c(F)ccc2cc(O)cc(-c3ncc4c(N5C[C@H]6CC[C@@H](C5)N6)nc(OC[C@@H]5CCCN5CCCCOCC(=O)N[C@H](C(=O)N5C[C@H](O)C[C@H]5C(=O)N[C@@H](C)c5ccc(-c6scnc6C)cc5)C(C)(C)C)nc4c3F)c12
[1]
  Emax: 99.5%
[2]; read-out: DC50
  DC50: 116 nM

## CCc1cccc2cc(O)cc(-c3ncc4c(N5C[C@H]6CC[C@@H](C5)N6)nc(OC[C@@H]5CCCN5C)nc4c3F)c12
[20]
  IC50: 5.8 nM

## CCc1cccc2cc(O)cc(-c3ncc4c(N5C[C@H]6CC[C@@H](C5)N6)nc(OC[C@@H]5CCCN5CCC(=O)NCCC(=O)N[C@H](C(=O)N5C[C@H](O)C[C@H]5C(=O)N[C@@H](C)c5ccc(-c6scnc6C)cc5)C(C)(C)C)nc4c3F)c12
[3]
  IC50: 2270 nM
[4]
  Ratio IC50: 76.2
[1]
  Emax: 83.6%
[5]
  IC50: 29.8 nM
[2]; read-out: DC50
  DC50: 3810 nM
[6]
  Drug uptake: Active
